Results taken from publication PMC11249646, “Small-Molecule Disruptors of the Interaction between Calcium- and Integrin-Binding Protein 1 and Integrin αIIbβ3 as Novel Antiplatelet Agents” (ACS Pharmacology & Translational Science, 2024).

biological target: T1, GST-CIB1 : F-αIIb peptide (Homo sapiens, UniProt Q99828); test: FP assay in the presence of glutathione (GSH), thiol reactivity; format: binding; conditions: GSH (+) Assay IC50, FP assay in the presence of glutathione (GSH +)
T1 construct: made in house; host or cells: BL-21 plus RIL cells (E. coli)
T1 sequence (Q99828 1-191): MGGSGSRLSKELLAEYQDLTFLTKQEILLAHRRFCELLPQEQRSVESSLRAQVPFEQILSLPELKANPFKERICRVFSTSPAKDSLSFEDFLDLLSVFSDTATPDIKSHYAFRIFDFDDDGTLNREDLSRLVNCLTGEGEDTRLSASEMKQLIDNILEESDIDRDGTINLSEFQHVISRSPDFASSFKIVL

Row | SMILES | IC50
1 | S=C(SSC(=S)N1CCCCC1)N1CCCCC1 [NCGC00181776-01] | > 120 µM

same assay, conditions: GSH (-) Assay IC50, FP assay without glutathione (GSH -)

Row | SMILES | IC50
2 | S=C(SSC(=S)N1CCCCC1)N1CCCCC1 [NCGC00181776-01] | 4.6 µM

same assay, conditions: ratio of GSH (+) IC50 to GSH (-) IC50

Row | SMILES | GSH/CIB1 IC50 ratio
3 | S=C(SSC(=S)N1CCCCC1)N1CCCCC1 [NCGC00181776-01] | 30.8

biological target: T2, CIB1 and αIIb interaction (CIB1-GST : F-αIIb peptide) (Homo sapiens, UniProt Q99828); test: FP assay, 1536-well qHTS format (primary and confirmatory screen); format: binding; conditions: confirmatory screen, YES/NO call
T2 construct: made in house; host or cells: BL-21 plus RIL cells (E. coli)
T2 sequence (Q99828 1-191): T1 sequence (Q99828 1-191)

Row | SMILES | CONFIRMATORY SCREEN Confirm?
4 | Nc1c(Cc2ccc(S(N)(=O)=O)cc2)c(-c2cccc(-c3ccccc3)c2)nn1-c1nc(C(=O)O)cs1.O=C(O)C(F)(F)F [NCGC00356752-02] | YES
5 | O=C1C=CC(=O)N1c1cccc(Br)c1 [NCGC00373120-01] | YES

same assay, conditions: confirmatory screen, qHTS curve class; negative sign = inhibitory curve

Row | SMILES | CONFIRMATORY SCREEN Curve Class
6 | Nc1c(Cc2ccc(S(N)(=O)=O)cc2)c(-c2cccc(-c3ccccc3)c2)nn1-c1nc(C(=O)O)cs1.O=C(O)C(F)(F)F [NCGC00356752-02] | -2.2
7 | O=C1C=CC(=O)N1c1cccc(Br)c1 [NCGC00373120-01] | -1.2

same assay, conditions: confirmatory screen; negative = inhibition

Row | SMILES | CONFIRMATORY SCREEN Efficacy (%)
8 | Nc1c(Cc2ccc(S(N)(=O)=O)cc2)c(-c2cccc(-c3ccccc3)c2)nn1-c1nc(C(=O)O)cs1.O=C(O)C(F)(F)F [NCGC00356752-02] | -78%
9 | O=C1C=CC(=O)N1c1cccc(Br)c1 [NCGC00373120-01] | -38%

same assay, conditions: confirmatory screen; read-out: CONFIRMATORY SCREEN IC50

Row | SMILES | IC50
10 | Nc1c(Cc2ccc(S(N)(=O)=O)cc2)c(-c2cccc(-c3ccccc3)c2)nn1-c1nc(C(=O)O)cs1.O=C(O)C(F)(F)F [NCGC00356752-02] | 39.8 µM
11 | O=C1C=CC(=O)N1c1cccc(Br)c1 [NCGC00373120-01] | 8.9 µM

same assay, conditions: qHTS FP screen hits, Table S2; negative = inhibition

Row | SMILES | Efficacy (%)
12 | Nc1c(Cc2ccc(S(N)(=O)=O)cc2)c(-c2cccc(-c3ccccc3)c2)nn1-c1nc(C(=O)O)cs1.O=C(O)C(F)(F)F [NCGC00356752-02] | -54%

same assay, conditions: qHTS FP screen hits, Table S2; one class per curve where COUNT > 1; negative sign = inhibitory curve

Row | SMILES | Curve Class
13 | Nc1c(Cc2ccc(S(N)(=O)=O)cc2)c(-c2cccc(-c3ccccc3)c2)nn1-c1nc(C(=O)O)cs1.O=C(O)C(F)(F)F [NCGC00356752-02] | -2.2

same assay, conditions: qHTS FP screen hits, Table S2; read-out: IC50

Row | SMILES | IC50
14 | Nc1c(Cc2ccc(S(N)(=O)=O)cc2)c(-c2cccc(-c3ccccc3)c2)nn1-c1nc(C(=O)O)cs1.O=C(O)C(F)(F)F [NCGC00356752-02] | 28.2 µM

same assay, conditions: qHTS primary screen hits, Table S2; negative = inhibition

Row | Efficacy (%) | SMILES
15 | -54% | O=C1C=CC(=O)N1c1cccc(Br)c1 [NCGC00373120-01]

same assay, conditions: qHTS primary screen hits, Table S2; negative sign = inhibitory curve

Row | Curve Class | SMILES
16 | -1.2 | O=C1C=CC(=O)N1c1cccc(Br)c1 [NCGC00373120-01]

same assay, conditions: qHTS primary screen hits, Table S2; read-out: IC50

Row | IC50 | SMILES
17 | 7.1 µM | O=C1C=CC(=O)N1c1cccc(Br)c1 [NCGC00373120-01]

biological target: T3, GST-CIB1 : F-scrambled peptide (Homo sapiens, UniProt Q99828); test: FP scrambled-peptide counter screen, 384-well format; format: binding; conditions: F-scrambled peptide
T3 construct: made in house; host or cells: BL-21 plus RIL cells (E. coli)
T3 sequence (Q99828 1-191): T1 sequence (Q99828 1-191)

Row | SMILES | 384-well COUNTERSCREEN Efficacy (%)
18 | Nc1c(Cc2ccc(S(N)(=O)=O)cc2)c(-c2cccc(-c3ccccc3)c2)nn1-c1nc(C(=O)O)cs1.O=C(O)C(F)(F)F [NCGC00356752-02] | 34%
19 | O=C1C=CC(=O)N1c1cccc(Br)c1 [NCGC00373120-01] | 74%

same assay, conditions: F-scrambled peptide; *: Curve in opposite direction

Row | SMILES | 384-well COUNTERSCREEN Confirm?
20 | Nc1c(Cc2ccc(S(N)(=O)=O)cc2)c(-c2cccc(-c3ccccc3)c2)nn1-c1nc(C(=O)O)cs1.O=C(O)C(F)(F)F [NCGC00356752-02] | Inconclusive
21 | O=C1C=CC(=O)N1c1cccc(Br)c1 [NCGC00373120-01] | YES

same assay, conditions: F-scrambled peptide; read-out: 384-well COUNTERSCREEN IC50

Row | SMILES | IC50
22 | Nc1c(Cc2ccc(S(N)(=O)=O)cc2)c(-c2cccc(-c3ccccc3)c2)nn1-c1nc(C(=O)O)cs1.O=C(O)C(F)(F)F [NCGC00356752-02] | 1.6 µM
23 | O=C1C=CC(=O)N1c1cccc(Br)c1 [NCGC00373120-01] | > 120 µM

biological target: T3, GST-CIB1 : F-scrambled peptide; test: FP scrambled-peptide counter screen, 1536-well format; format: binding; conditions: scrambled-peptide counterscreen

Row | SMILES | COUNTERSCREEN Efficacy (%)
24 | Nc1c(Cc2ccc(S(N)(=O)=O)cc2)c(-c2cccc(-c3ccccc3)c2)nn1-c1nc(C(=O)O)cs1.O=C(O)C(F)(F)F [NCGC00356752-02] | 0%
25 | O=C1C=CC(=O)N1c1cccc(Br)c1 [NCGC00373120-01] | 14%

same assay, conditions: scrambled-peptide counterscreen, YES/NO call

Row | SMILES | COUNTERSCREEN Confirm?
26 | Nc1c(Cc2ccc(S(N)(=O)=O)cc2)c(-c2cccc(-c3ccccc3)c2)nn1-c1nc(C(=O)O)cs1.O=C(O)C(F)(F)F [NCGC00356752-02] | YES
27 | O=C1C=CC(=O)N1c1cccc(Br)c1 [NCGC00373120-01] | YES

same assay, conditions: scrambled-peptide counterscreen, qHTS curve class

Row | SMILES | COUNTERSCREEN Curve Class
28 | Nc1c(Cc2ccc(S(N)(=O)=O)cc2)c(-c2cccc(-c3ccccc3)c2)nn1-c1nc(C(=O)O)cs1.O=C(O)C(F)(F)F [NCGC00356752-02] | 4
29 | O=C1C=CC(=O)N1c1cccc(Br)c1 [NCGC00373120-01] | 4

biological target: T4, CIB1 and αIIb interaction (GST-CIB1 : F-αIIb peptide) (Homo sapiens, UniProt Q99828); test: FP assay, 384-well format (screen); format: binding; set-up: 384-well SCREEN Efficacy (%): concentration or dose not given beside the values; conditions: F-αIIb peptide
T4 construct: made in house; host or cells: BL-21 plus RIL cells (E. coli)
T4 sequence (Q99828 1-191): T1 sequence (Q99828 1-191)

Row | SMILES | 384-well SCREEN Efficacy (%)
30 | Nc1c(Cc2ccc(S(N)(=O)=O)cc2)c(-c2cccc(-c3ccccc3)c2)nn1-c1nc(C(=O)O)cs1.O=C(O)C(F)(F)F [NCGC00356752-02] | 49%
31 | O=C1C=CC(=O)N1c1cccc(Br)c1 [NCGC00373120-01] | 42%

same assay, conditions: F-αIIb peptide; YES/NO

Row | SMILES | 384-well SCREEN Confirm?
32 | Nc1c(Cc2ccc(S(N)(=O)=O)cc2)c(-c2cccc(-c3ccccc3)c2)nn1-c1nc(C(=O)O)cs1.O=C(O)C(F)(F)F [NCGC00356752-02] | YES
33 | O=C1C=CC(=O)N1c1cccc(Br)c1 [NCGC00373120-01] | YES

same assay, conditions: F-αIIb peptide; read-out: 384-well SCREEN IC50

Row | SMILES | IC50
34 | Nc1c(Cc2ccc(S(N)(=O)=O)cc2)c(-c2cccc(-c3ccccc3)c2)nn1-c1nc(C(=O)O)cs1.O=C(O)C(F)(F)F [NCGC00356752-02] | 14.1 µM
35 | O=C1C=CC(=O)N1c1cccc(Br)c1 [NCGC00373120-01] | 10 µM

same assay, conditions: selective toward αIIb: negative curve class and/or IC50 ratio of >3-fold and/or >2-fold efficacy vs scrambled peptide

Row | SMILES | Confirm and Selective?
36 | Nc1c(Cc2ccc(S(N)(=O)=O)cc2)c(-c2cccc(-c3ccccc3)c2)nn1-c1nc(C(=O)O)cs1.O=C(O)C(F)(F)F [NCGC00356752-02] | Inconclusive
